Measured values: PubChem BioAssay (NCI)
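These data come from cells grown in 96-well plates and exposed to compound for 48 hours at five concentrations. The concentration for full growth arrest is given as TGI.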

Legend:
Assay in all cases: NCI-60 cell line screen, 48 h
ACHN renal = test system: ACHN renal
HCC-2998 colon = test system: HCC-2998 colon
HL-60(TB) leukemia = test system: HL-60(TB) leukemia
HS 578T breast = test system: HS 578T breast
MDA-N = test system: MDA-N
NCI-H226 lung = test system: NCI-H226 lung
OVCAR-3 ovarian = test system: OVCAR-3 ovarian
OVCAR-8 ovarian = test system: OVCAR-8 ovarian
SK-MEL-2 melanoma = test system: SK-MEL-2 melanoma
SN12C renal = test system: SN12C renal
SR leukemia = test system: SR leukemia

| SMILES | TGI (ACHN renal) [µM] | TGI (HCC-2998 colon) [µM] | TGI (HL-60(TB) leukemia) [µM] | TGI (HS 578T breast) [µM] | TGI (MDA-N) [µM] | TGI (NCI-H226 lung) [µM] | TGI (OVCAR-3 ovarian) [µM] | TGI (OVCAR-8 ovarian) [µM] | TGI (SK-MEL-2 melanoma) [µM] | TGI (SN12C renal) [µM] | TGI (SR leukemia) [µM] |
| --- | --- | --- | --- | --- | --- | --- | --- | --- | --- | --- | --- |
| CN1CCN(C2CC(=O)c3c(Cl)sc(Cl)c32)CC1 (stereo not given) | 36.6 | 24.6 | 46 | > 23.7 | 35 | > 65.3 | 38.7 | > 21.3 | > 59.9 | 30 | > 100 |
| CCOC(=O)/C=C/C(Br)=C(Br)/C=C/C(=O)OCC | 25.8 | 49 | 26.1 | > 76.2 | 27.3 | 56.1 | 24.9 | 21.3 | 49.3 | 25.9 | 34.4 |
| C/C(=N\Nc1nc2ccccc2n1C)c1ccncn1 | 30.9 | > 100 | 0.0439 | > 100 | > 100 | > 45.7 | – | > 40.9 | > 100 | > 100 | > 100 |
| COC1OC(=O)C(OC)C(OC)C1OC (stereo not given) | > 100 | > 100 | > 100 | > 100 | > 100 | > 100 | > 100 | > 100 | > 100 | > 100 | > 100 |
| COc1ccc(Cn2nc(OCc3ccccc3)c3cc([N+](=O)[O-])ccc32)cc1 | > 100 | > 100 | > 100 | > 100 | > 100 | > 100 | > 100 | > 100 | > 100 | > 100 | > 100 |
| Nc1nn2cc(-c3ccccc3)[n+](CC(=O)c3ccccc3)c2s1 | > 100 | 31.7 | > 100 | 43.6 | > 100 | > 100 | 71.3 | > 100 | 30.4 | > 100 | 48 |
| COc1ccc2c(-c3csc(-c4c[nH]c5ccccc45)n3)c[nH]c2c1 | 16.9 | 30.4 | > 100 | > 78.7 | > 100 | 45.4 | 51.7 | > 60.6 | > 86.2 | 35.9 | > 100 |
| CCOC(=O)N1c2c(c3ccccc3n2C(=O)OCC)C(=O)C(OC)N1C(=O)OCC (stereo not given) | 92.7 | > 100 | 49.8 | 73.3 | > 100 | > 100 | > 100 | > 100 | 36.4 | > 100 | 45.1 |
| O=C(OCC(OC(=O)c1ccccc1)C1CC(C(O)C2CCCCC2)C(=O)O1)c1ccccc1 (stereo not given) | > 100 | > 100 | 37 | > 100 | > 100 | > 100 | > 100 | > 100 | > 100 | > 100 | 44.8 |
| Cc1nc2cccc(F)c2c(=O)n1-c1nnc(C2CC2)s1 | > 10 | > 10 | > 10 | > 10 | > 10 | > 10 | > 10 | > 10 | > 10 | > 10 | > 10 |
| N#Cc1nc(-c2ccccn2)c(-c2ccccn2)nc1C#N | 7.95 | 17.6 | > 29.2 | 29.1 | > 100 | 5.51 | > 42.9 | 15.3 | 10.6 | > 100 | > 33.9 |
| CC(=O)N1C(=O)/C(=C\C(=O)c2ccc(Cl)cc2)c2ccccc21 | 23.6 | 31.5 | 5.24 | > 57.3 | 30.9 | 44.5 | 30.6 | 33.7 | 38.9 | 32.1 | 6.51 |
| CC(=O)O[C@H]1CC[C@]2(C=O)[C@H]3CC[C@]4(C)[C@@H](C5=CC(=O)OC5)CC[C@]4(O)[C@@H]3CC[C@]2(O)C1 | 0.557 | 1.33 | 5.18 | > 100 | 0.97 | 1.97 | 0.622 | 1.01 | 1.08 | 1.53 | > 100 |
| Cc1cc(=O)oc2c(CN(CCCl)CCCl)c(O)ccc12 | > 100 | > 100 | 27.4 | > 100 | > 100 | > 100 | > 100 | > 100 | > 100 | > 100 | > 100 |
| C/C(=N/NC(=O)c1ccccc1Nc1ccccc1C(=O)N/N=C(\C)c1ccc(C)cc1)c1ccc(C)cc1 | > 100 | > 100 | > 100 | > 100 | > 100 | > 100 | > 100 | > 100 | > 100 | > 100 | > 100 |
| COc1ccc(C(OCC2OC(n3ccc(Oc4c(F)c(F)c(F)c(F)c4F)nc3=O)CC2OP(OCCC#N)N(C(C)C)C(C)C)(c2ccccc2)c2ccc(OC)cc2)cc1 (stereo not given) | > 100 | > 100 | > 100 | > 100 | > 100 | > 100 | > 100 | > 100 | > 100 | > 100 | > 100 |
| C(=N\Nc1nnc(-c2nnc(N/N=C/c3ccccc3)o2)o1)/c1ccccc1 | > 10 | > 10 | > 10 | > 10 | > 10 | > 10 | > 10 | > 10 | – | > 10 | > 10 |
| C=C1CC2C[C@H](OS(=O)(=O)c3ccc(C)cc3)C(C1)N2C (stereo not given in full) | – | > 100 | > 100 | > 100 | > 100 | > 100 | > 100 | > 100 | > 100 | > 100 | > 100 |
| CC1CN=C(N(C(=O)Nc2ccccc2)C2CCCCC2)S1 (stereo not given) | 26.3 | 34.6 | 35.6 | 50 | 30.1 | – | 31.8 | 75 | 29.5 | 31.2 | 35.1 |
